Tests used:
Format in all cases: toxicity, cell-based
HEK-293T = assay: Incucyte cell viability with HEK293T; conditions: human, 10 µM, compound concentration 10 uM
U2OS = assay: Incucyte cell viability with U2OS; conditions: human, 10 µM, compound concentration 10 uM
Fibroblast = assay: Incucyte cell viability with human fibroblast; conditions: 10 µM, compound concentration 10 uM
[1] = 0 h, replicate number 1, timepoint 0 hours
[2] = 0 h, replicate number 2, timepoint 0 hours
[3] = 6 h, replicate number 1, timepoint 6 hours
[4] = 12 h, replicate number 1, timepoint 12 hours
[5] = 18 h, replicate number 1, timepoint 18 hours
[6] = 24 h, replicate number 1, timepoint 24 hours
[7] = 12 h, replicate number 2, timepoint 12 hours
[8] = 6 h, replicate number 2, timepoint 6 hours
[9] = 18 h, replicate number 2, timepoint 18 hours
[10] = 24 h, replicate number 2, timepoint 24 hours
Further: filed as whole numbers so only -1 and 0 and 1 occur.

O[C@H]1CC[C@H](Nc2ncc3nc(Nc4c(F)cc(F)cc4F)n([C@H]4CCOC4)c3n2)CC1 [TANZISERTIB]
Growth Rate (HEK-293T; [1]): 0
Growth Rate (HEK-293T; [2]): 1
Growth Rate (U2OS; [1]): 0
Growth Rate (U2OS; [2]): 1
Growth Rate (U2OS; [3]): 0
Growth Rate (U2OS; [4]): 0
Growth Rate (U2OS; [5]): 0
Growth Rate (U2OS; [6]): 0
Growth Rate (Fibroblast; [2]): 0
Growth Rate (Fibroblast; [3]): 0
Growth Rate (Fibroblast; [4]): 1
Growth Rate (Fibroblast; [7]): 0
Growth Rate (Fibroblast; [5]): 1
Growth Rate (Fibroblast; [6]): 1

C[C@H](NC(=O)c1cnc2n1[C@](C)(Cc1ccc(C#N)cc1)C(=O)N2c1cc(Cl)c(F)c(Cl)c1)C(=O)NC1(c2ccccn2)CC1 [BI 1950]
Growth Rate (HEK-293T; [1]): 1
Growth Rate (HEK-293T; [2]): 0
Growth Rate (HEK-293T; [3]): 0
Growth Rate (HEK-293T; [4]): 0
Growth Rate (HEK-293T; [5]): 0
Growth Rate (HEK-293T; [6]): 0
Growth Rate (U2OS; [1]): 0
Growth Rate (U2OS; [8]): 1
Growth Rate (U2OS; [4]): 1
Growth Rate (U2OS; [5]): 1
Growth Rate (U2OS; [6]): 1
Growth Rate (Fibroblast; [1]): 0
Growth Rate (Fibroblast; [2]): 1
Growth Rate (Fibroblast; [8]): 0
Growth Rate (Fibroblast; [7]): 0
Growth Rate (Fibroblast; [5]): 1
Growth Rate (Fibroblast; [9]): 0
Growth Rate (Fibroblast; [6]): 1
Growth Rate (Fibroblast; [10]): 0

COc1cc2ncnc(Nc3ccc(F)c(Cl)c3)c2cc1OCCCN1CCOCC1 [GEFITINIB]
Growth Rate (HEK-293T; [1]): 0
Growth Rate (HEK-293T; [3]): 0
Growth Rate (HEK-293T; [4]): 0
Growth Rate (HEK-293T; [5]): 0
Growth Rate (HEK-293T; [6]): 0
Growth Rate (U2OS; [1]): 0
Growth Rate (U2OS; [3]): 0
Growth Rate (U2OS; [4]): 0
Growth Rate (U2OS; [7]): 1
Growth Rate (U2OS; [5]): 0
Growth Rate (U2OS; [9]): 1
Growth Rate (U2OS; [6]): 0
Growth Rate (U2OS; [10]): 1
Growth Rate (Fibroblast; [1]): 0
Growth Rate (Fibroblast; [8]): 1
Growth Rate (Fibroblast; [4]): 0
Growth Rate (Fibroblast; [5]): 0
Growth Rate (Fibroblast; [6]): 0

O=C(O)Cn1c(C(=O)Nc2nc(-c3ccccc3Cl)cs2)cc2ccccc21
Growth Rate (HEK-293T; [1]): 0
Growth Rate (HEK-293T; [3]): 1
Growth Rate (HEK-293T; [8]): 0
Growth Rate (HEK-293T; [4]): 1
Growth Rate (HEK-293T; [7]): 0
Growth Rate (HEK-293T; [5]): 1
Growth Rate (HEK-293T; [9]): 0
Growth Rate (HEK-293T; [6]): 1
Growth Rate (HEK-293T; [10]): 0
Growth Rate (U2OS; [2]): 0
Growth Rate (U2OS; [8]): 0
Growth Rate (U2OS; [4]): 1
Growth Rate (U2OS; [5]): 0
Growth Rate (U2OS; [6]): 1
Growth Rate (Fibroblast; [1]): 0
Growth Rate (Fibroblast; [2]): 1
Growth Rate (Fibroblast; [3]): 1
Growth Rate (Fibroblast; [8]): 0
Growth Rate (Fibroblast; [4]): 0
Growth Rate (Fibroblast; [5]): 1
Growth Rate (Fibroblast; [9]): 0
Growth Rate (Fibroblast; [6]): 0

C[C@]1(C(=O)N(CCCC(=O)O)Cc2cccc(Cl)c2)CCN1C(=O)c1csc2ccccc12 [GLPG-0974]
Growth Rate (HEK-293T; [1]): 1
Growth Rate (HEK-293T; [2]): 0
Growth Rate (HEK-293T; [3]): 1
Growth Rate (HEK-293T; [8]): 0
Growth Rate (HEK-293T; [4]): 1
Growth Rate (HEK-293T; [7]): 0
Growth Rate (HEK-293T; [5]): 1
Growth Rate (HEK-293T; [9]): 0
Growth Rate (HEK-293T; [6]): 1
Growth Rate (HEK-293T; [10]): 0
Growth Rate (U2OS; [1]): 0
Growth Rate (U2OS; [8]): 1
Growth Rate (U2OS; [4]): 1
Growth Rate (U2OS; [5]): 1
Growth Rate (U2OS; [6]): 1
Growth Rate (Fibroblast; [1]): 0
Growth Rate (Fibroblast; [2]): 1
Growth Rate (Fibroblast; [3]): 0
Growth Rate (Fibroblast; [4]): 0
Growth Rate (Fibroblast; [5]): 1
Growth Rate (Fibroblast; [6]): 1

CC#CC(=O)N1CCC[C@H]1c1nc(-c2ccc(C(=O)Nc3ccccn3)cc2)c2c(N)nccn12 [ACALABRUTINIB]
Growth Rate (HEK-293T; [1]): 1
Growth Rate (HEK-293T; [3]): 0
Growth Rate (HEK-293T; [4]): 0
Growth Rate (HEK-293T; [5]): 0
Growth Rate (HEK-293T; [9]): 1
Growth Rate (HEK-293T; [6]): 0
Growth Rate (U2OS; [1]): 0
Growth Rate (U2OS; [2]): 1
Growth Rate (U2OS; [3]): 0
Growth Rate (U2OS; [4]): 0
Growth Rate (U2OS; [5]): 0
Growth Rate (U2OS; [6]): 1
Growth Rate (U2OS; [10]): 0
Growth Rate (Fibroblast; [1]): 0
Growth Rate (Fibroblast; [3]): 1
Growth Rate (Fibroblast; [8]): 0
Growth Rate (Fibroblast; [4]): 0
Growth Rate (Fibroblast; [7]): 1
Growth Rate (Fibroblast; [5]): 0
Growth Rate (Fibroblast; [6]): 1
Growth Rate (Fibroblast; [10]): 0

CN1CCc2c(c3ccccc3n2Cc2ccc(C(=O)NO)cc2)C1 [TUBASTATIN A]
Growth Rate (HEK-293T; [1]): 0
Growth Rate (HEK-293T; [2]): 1
Growth Rate (U2OS; [1]): 0
Growth Rate (U2OS; [3]): 1
Growth Rate (U2OS; [4]): 1
Growth Rate (U2OS; [5]): 1
Growth Rate (U2OS; [6]): 1
Growth Rate (Fibroblast; [1]): 1
Growth Rate (Fibroblast; [8]): 0
Growth Rate (Fibroblast; [7]): 0
Growth Rate (Fibroblast; [5]): 1
Growth Rate (Fibroblast; [9]): 0
Growth Rate (Fibroblast; [6]): 1

Cc1cc(-n2nc(Cc3cc(F)cc(C(F)(F)F)c3)nc2C)ccc1C(N)=O [TP-024]
Growth Rate (HEK-293T; [1]): 1
Growth Rate (HEK-293T; [2]): 0
Growth Rate (HEK-293T; [3]): 0
Growth Rate (HEK-293T; [4]): 0
Growth Rate (HEK-293T; [5]): 0
Growth Rate (HEK-293T; [6]): 0
Growth Rate (U2OS; [3]): 0
Growth Rate (U2OS; [8]): 1
Growth Rate (U2OS; [4]): 0
Growth Rate (U2OS; [7]): 1
Growth Rate (U2OS; [5]): 0
Growth Rate (U2OS; [9]): 1
Growth Rate (U2OS; [6]): 0
Growth Rate (U2OS; [10]): 1
Growth Rate (Fibroblast; [1]): 0
Growth Rate (Fibroblast; [2]): 1
Growth Rate (Fibroblast; [3]): 1
Growth Rate (Fibroblast; [8]): 0
Growth Rate (Fibroblast; [4]): 1
Growth Rate (Fibroblast; [7]): 0
Growth Rate (Fibroblast; [5]): 1
Growth Rate (Fibroblast; [9]): 0
Growth Rate (Fibroblast; [6]): 1
Growth Rate (Fibroblast; [10]): 0

Source: ChEMBL document CHEMBL4689842, “EUbOPEN Chemogenomics Library wave 1” (2021)
